Source: publication PMC9172550, “Novel derivatives of eugenol as potent anti-inflammatory agents via PPARγ agonism: rational design, synthesis, analysis, PPARγ protein binding assay and computational studies” (RSC Advances, 2022)

Key:
[1] = biological target: egg albumin (Gallus gallus, UniProt P01012); test: Albumin denaturation assay (in vitro anti-inflammatory activity); set-up: species or system hen; settings: means ± SD, n = 3, read-out: percentage inhibition of albumin denaturation
Method: In this assay egg albumin is used as protein. Protein denaturation is achieved by keeping the reaction mixture at 70 °C in a water bath for 10 minutes.
The reaction mixture containing 0.2 ml of egg albumin (from fresh hen's eggs), 2.8 ml of phosphate-buffered saline (pH 6.4), and were mixed with 2 ml of the synthesized compounds in varying concentrations. Then the samples were incubated at 37 °C for 20 min and then heated to 70 °C for 20 min. After cooling the samples, the turbidity was measured spectrophotometrically at 660 nm. […] The following formula was used to calculate the percentage inhibition of protein denaturation. [drawing 5]

[2] = biological target: T1, PPARγ LBD protein (Homo sapiens, UniProt P37231); test: LanthaScreen TR-FRET competitive ligand displacement (PPARγ protein binding) assay; settings: for IC50: TR-FRET PPARγ binding, tracer displacement
T1 construct: 1 nM 6xHis-PPAR LBD protein
T1 sequence (P37231 238-503 limits assumed): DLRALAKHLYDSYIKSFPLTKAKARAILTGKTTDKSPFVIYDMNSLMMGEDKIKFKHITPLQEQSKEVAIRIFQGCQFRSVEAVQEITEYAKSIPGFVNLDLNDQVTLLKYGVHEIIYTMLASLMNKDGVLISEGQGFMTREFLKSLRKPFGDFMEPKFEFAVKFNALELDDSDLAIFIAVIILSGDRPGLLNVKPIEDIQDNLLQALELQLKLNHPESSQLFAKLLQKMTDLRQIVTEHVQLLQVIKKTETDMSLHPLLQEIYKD
Method: Based on time-resolved fluorescence resonance energy transfer (TR-FRET), the nuclear receptor competitive binding assay was utilized to identify PPARγ ligands. […] The tracer is displaced from PPARγ-LBD by a chemical under test, resulting in a decrease in the FRET signal and a low TR-FRET ratio (Fig. 8).
We performed a time-resolved fluorescence resonance energy transfer (TR-FRET) assay using a black flat bottom 384-well plate and a buffer containing 20 mM potassium phosphate (pH 7.4), 0.5 mM EDTA, 50 mM KCl, and 0.01% Tween-20, 5 mM TCEP. For the TR-FRET coregulator interaction assay, each well contained 400 nM FITC-labeled TRAP220 or NCoR1 peptides, 1 nM LanthaScreen Elite Tb-anti-His Antibody, 4 nM 6xHis-PPARγ LBD protein and 400 nM peptide in TR-FRET buffer in 22.5 μL total volume per well. Each well ([…] per well) included 1 nM 6xHis-PPAR LBD protein, 1 nM LanthaScreen Elite Tb-anti-His Antibody, and 5 nM Fluormone Pan-PPAR Green tracer ligand in TR-FRET buffer for the ligand displacement experiment. Ligand stocks were made by serial dilution in DMSO, then added to wells in triplicate to a final DMSO concentration of 1%, then incubated at room temperature for 1 hour, and read using a BioTek Synergy Neo multimode plate reader. The Tb donor was stimulated at 340 nm, its fluorescence emission was measured at 490 nm, and the FITC emission of the acceptor was detected at 520 nm. The signal at 520 nm/490 nm was used to compute the TR-FRET ratio.[37,38]

egg albumin, sequence (P01012 2-386): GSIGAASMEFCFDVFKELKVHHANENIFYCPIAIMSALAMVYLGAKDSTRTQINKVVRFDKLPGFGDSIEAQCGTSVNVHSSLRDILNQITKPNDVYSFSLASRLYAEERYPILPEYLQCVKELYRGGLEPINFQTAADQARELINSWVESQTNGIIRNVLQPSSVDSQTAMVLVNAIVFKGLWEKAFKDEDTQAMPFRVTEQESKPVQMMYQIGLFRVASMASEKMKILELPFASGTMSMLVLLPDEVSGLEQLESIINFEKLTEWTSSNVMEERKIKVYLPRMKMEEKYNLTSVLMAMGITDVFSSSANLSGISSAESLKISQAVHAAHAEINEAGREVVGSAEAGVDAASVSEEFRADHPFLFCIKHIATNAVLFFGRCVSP

SMILES | inhibition at 6.25 µM [1] [%] | inhibition at 12.5 µM [1] [%] | inhibition at 25 µM [1] [%] | inhibition at 50 µM [1] [%] | inhibition at 150 µM [1] [%] | inhibition at 200 µM [1] [%] | inhibition at 400 µM [1] [%] | IC50 [2] [µM] | Raw Data (RLU) ([2]; TR-FRET signal at 0.0000512 µM) | Raw Data - Background (RLU) ([2]; TR-FRET signal at 0.0000512 µM) | Raw Data (RLU) ([2]; TR-FRET signal at 0.000256 µM) | Raw Data - Background (RLU) ([2]; TR-FRET signal at 0.000256 µM) | Raw Data (RLU) ([2]; TR-FRET signal at 0.00128 µM) | Raw Data - Background (RLU) ([2]; TR-FRET signal at 0.00128 µM) | Raw Data (RLU) ([2]; TR-FRET signal at 0.0064 µM) | Raw Data - Background (RLU) ([2]; TR-FRET signal at 0.0064 µM) | Raw Data (RLU) ([2]; TR-FRET signal at 0.032 µM) | Raw Data - Background (RLU) ([2]; TR-FRET signal at 0.032 µM) | Raw Data (RLU) ([2]; TR-FRET signal at 0.16 µM) | Raw Data - Background (RLU) ([2]; TR-FRET signal at 0.16 µM) | also measured
O=C(O)Cc1ccccc1Nc1c(Cl)cccc1Cl [Standard diclofenac, Diclofenac sodium, reference compound] | 10 ± 0.463 | 15.7 ± 0.429 | 27 ± 0.336 | 38.5 ± 0.468 | 48.3 ± 3.14 | 60.9 ± 0.223 | 66.29 ± 0.375 |  |  |  |  |  |  |  |  |  |  |  |  |  | 
C=CCc1ccc(OCC(=O)Nc2ccc(OC)cc2)c(OC)c1 [Compound 1B, 2-(4-Allyl-2-methoxyphenoxy)-N-(4-methoxyphenyl) acetamide] | 1.71 ± 0.344 | 4.57 ± 0.54 | 6.82 ± 1.37 | 8.59 ± 0.205 | 9.45 ± 0.681 | 16.4 ± 5.09 | 30.7 ± 4.44 | 41.5 | 2.024 | 1.789 | 1.990 | 1.755 | 1.965 | 1.73 | 1.913 | 1.678 | 1.913 | 1.678 | 1.960 | 1.724 | Raw Data (RLU) ([2]; TR-FRET signal at 0.8 µM): 2.002 RLU; Raw Data - Background (RLU) ([2]; TR-FRET signal at 0.8 µM): 1.767 RLU; Raw Data (RLU) ([2]; TR-FRET signal at 4 µM): 1.855 RLU; Raw Data - Background (RLU) ([2]; TR-FRET signal at 4 µM): 1.619 RLU; Raw Data (RLU) ([2]; TR-FRET signal at 20 µM): 1.280 RLU; Raw Data - Background (RLU) ([2]; TR-FRET signal at 20 µM): 1.045 RLU; Raw Data (RLU) ([2]; TR-FRET signal at 100 µM): 0.534 RLU; Raw Data - Background (RLU) ([2]; TR-FRET signal at 100 µM): 0.2989 RLU
C=CCc1ccc(OCC(=O)Nc2ccc(Cl)cc2)c(OC)c1 [Compound 1C, 2-(4-Allyl-2-methoxyphenoxy)-N-(4-chlorophenyl) acetamide] | 5.23 ± 4.12 | 9.14 ± 0.615 | 15.7 ± 1.59 | 22.6 ± 1.98 | 38.5 ± 1.1 | 48.1 ± 1.14 | 56.9 ± 1.8 | 10.7 | 2.069 | 1.834 | 1.896 | 1.660 | 1.907 | 1.672 | 1.934 | 1.699 | 1.989 | 1.754 | 1.921 | 1.686 | Raw Data (RLU) ([2]; TR-FRET signal at 0.8 µM): 1.922 RLU; Raw Data - Background (RLU) ([2]; TR-FRET signal at 0.8 µM): 1.687 RLU; Raw Data (RLU) ([2]; TR-FRET signal at 4 µM): 1.761 RLU; Raw Data - Background (RLU) ([2]; TR-FRET signal at 4 µM): 1.526 RLU; Raw Data (RLU) ([2]; TR-FRET signal at 20 µM): 1.058 RLU; Raw Data - Background (RLU) ([2]; TR-FRET signal at 20 µM): 0.823 RLU; Raw Data (RLU) ([2]; TR-FRET signal at 100 µM): 0.951 RLU; Raw Data - Background (RLU) ([2]; TR-FRET signal at 100 µM): 0.716 RLU
C=CCc1ccc(OCC(=O)Nc2cccc(C)c2)c(OC)c1 [Compound 1D, 2-(4-Allyl-2-methoxyphenoxy)-N-m-tolylacetamide] | 2.66 ± 1.12 | 7.88 ± 3.8 | 11.1 ± 3.65 | 15.9 ± 7.79 | 22.4 ± 5.43 | 29.6 ± 3.94 | 36.7 ± 4.77 | 15 | 1.92 | 1.69 | 1.95 | 1.72 | 1.85 | 1.61 | 2.07 | 1.83 | 1.93 | 1.70 | 1.87 | 1.64 | Raw Data (RLU) ([2]; TR-FRET signal at 0.8 µM): 1.91 RLU; Raw Data - Background (RLU) ([2]; TR-FRET signal at 0.8 µM): 1.68 RLU; Raw Data (RLU) ([2]; TR-FRET signal at 4 µM): 1.91 RLU; Raw Data - Background (RLU) ([2]; TR-FRET signal at 4 µM): 1.67 RLU; Raw Data (RLU) ([2]; TR-FRET signal at 20 µM): 1.91 RLU; Raw Data - Background (RLU) ([2]; TR-FRET signal at 20 µM): 1.67 RLU; Raw Data (RLU) ([2]; TR-FRET signal at 100 µM): 1.40 RLU; Raw Data - Background (RLU) ([2]; TR-FRET signal at 100 µM): 1.17 RLU
C=CCc1ccc(OCC(=O)Nc2ccc(C)cc2)c(OC)c1 [Compound 1A, 2-(4-Allyl-2-methoxyphenoxy)-N-p-tolylacetamide] | 2.42 ± 0.165 | 5.7 ± 3.19 | 8.72 ± 3.93 | 13.3 ± 7.51 | 17.2 ± 8.71 | 25.4 ± 2.87 | 32 ± 2.95 | 13.5 | 2.07 | 1.84 | 2.10 | 1.862 | 2.02 | 1.787 | 1.92 | 1.688 | 2.00 | 1.76 | 1.95 | 1.716 | Raw Data (RLU) ([2]; TR-FRET signal at 0.8 µM): 1.99 RLU; Raw Data - Background (RLU) ([2]; TR-FRET signal at 0.8 µM): 1.754 RLU; Raw Data (RLU) ([2]; TR-FRET signal at 4 µM): 1.57 RLU; Raw Data - Background (RLU) ([2]; TR-FRET signal at 4 µM): 1.332 RLU; Raw Data (RLU) ([2]; TR-FRET signal at 20 µM): 1.07 RLU; Raw Data - Background (RLU) ([2]; TR-FRET signal at 20 µM): 0.8399 RLU; Raw Data (RLU) ([2]; TR-FRET signal at 100 µM): 0.54 RLU; Raw Data - Background (RLU) ([2]; TR-FRET signal at 100 µM): 0.3006 RLU
